Experimental findings from patent US20150202179A1, “FATTY ACID DERIVATIVES FOR USE IN A METHOD OF TREATING DEPRESSION AND ASSOCIATED CONDITIONS” (YISSUM RESEARCH DEVELOPMENT COMPANY OF THE HEBREW …, priority 2012, published 2015) are described below.

The subject of one assay is leptin. Description: Leptin levels in the hypothalamus. Format: in vivo, BALB/c mice. The following applies: FIG. 15. The text has this: 50, 2 month old female BALB/c mice, 10 mice per group, on ad libitum diet were separated (each mouse in a different cage) for 9 days (Separation Stress, a model for depression).
In another assay the test system is P-AMPK protein. Description: P-AMPK protein levels by western blot. It is filed as in vivo, BALB/c mice. On the procedure: 50, 2 month old female BALB/c mice, 10 mice per group, on ad libitum diet were separated (each mouse in a different cage) for 9 days (Separation Stress, a model for depression). On the 7, 8, 9, 34-40 days mice were administered with either vehicle or compounds x, 12 and 15 (1 mg/kg i.p.) or imipramine 10 mg/kg (antidepressant). P-AMPK protein was monitored by western blot. […] (p<0.05a).
In general terms: Immunoblotting shows a protein as a band on a membrane.

Turning to `CCCCCCCC/C=C\CCCCCCCC(=O)N[C@H](CO)C(C)C` [Compound 1, oleoyl-L-valinol amide], in the assay on leptin, the “leptin levels in the hypothalamus” value is “tendency to increase”. The “P-AMPK protein in the hippocampus” value in the assay with P-AMPK protein (hippocampus, FIG. 14A) was “significant increase”. For the same molecule, in the assay with P-AMPK protein (hypothalamus, FIG. 14B), the “P-AMPK protein in the hypothalamus” value is reported as “significant increase”.
